ChEMBL document CHEMBL3797121, “Novel nucleoside-based antimalarial compounds” (Bioorg Med Chem Lett, 2016)

What was measured:
[1] = Selectivity index, ratio of IC50 for rat L6 cells to IC50 for erythrocytic stage of Plasmodium falciparum K1; format: toxicity, cell-based; conditions: read-out: Ratio IC50
L6 = assay: Cytotoxicity against rat L6 cells; format: cell-based
Plasmodium falciparum = assay: Antimalarial activity against erythrocytic stage of Plasmodium falciparum K1 after 18 hrs by [3H]-hypoxanthine incorporation assay; format: functional, organism-based

IC50 (Plasmodium falciparum) [µM] | SMILES | selectivity ratio [1] | IC50 (L6) [µM]
11.5 | CNc1nc(F)nc2c1ncn2[C@@H]1O[C@H](C)[C@@H](O)[C@H]1O | 21 | 236
 | CCN(CC)CCCC(C)Nc1ccnc2cc(Cl)ccc12 (centres undefined) [CHLOROQUINE] |  | 120
33.5 | C[C@H]1O[C@@H](n2cnc3c(N)nc(C#N)nc32)[C@H](O)[C@@H]1O | 5 | 177
9.01 | CNc1ncnc2c1ncn2[C@@H]1O[C@H](C)[C@@H](O)[C@H]1O | 30 | 266
64.9 | CNc1nc(I)nc2c1ncn2[C@@H]1O[C@H](C)[C@@H](O)[C@H]1O | 2 | 137
31.2 | CNc1nc(C#N)nc2c1ncn2[C@@H]1O[C@H](C)[C@@H](O)[C@H]1O | 3 | 85
17.5 | C[C@H]1O[C@@H](n2cnc3c(N)nc(Cl)nc32)[C@H](O)[C@@H]1O | 8 | 147
15.6 | C[C@H]1O[C@@H](n2cnc3c(N)nc(N)nc32)[C@H](O)[C@@H]1O | 22 | 338
55.9 | C[C@H]1O[C@@H](n2cnc3c(N)nc(I)nc32)[C@H](O)[C@@H]1O | 2 | 110
42 | C[C@H]1O[C@@H](n2cnc3c(N)nc(NN)nc32)[C@H](O)[C@@H]1O | 4 | 188

SMILES | IC50 (Plasmodium falciparum) [µM] | selectivity ratio [1] | IC50 (L6) [µM]
C[C@H]1O[C@@H](n2cnc3c(N)nc(N=[N+]=[N-])nc32)[C@H](O)[C@@H]1O | 108 | 2 | 181
C[C@H]1O[C@@H](n2cnc3c(N)nc(F)nc32)[C@H](O)[C@@H]1O | 1 | 2 | 2.1
